Experimental data: patent US20070243629A1, “High Affinity Ligands for Influenza Virus and Methods for Their Production” (Glykos Finland Oy, priority 2003, published 2007)

Assays:
Type in all cases: binding, human influenza virus A
Set-up in all cases: key: “+” = binding; “−” = no binding; “(+)” = trace binding
A/2/Japan/305/57 H2N2 = system: A/2/Japan/305/57 H2N2
A/Kiev/301/94 H3N2 = system: A/Kiev/301/94 H3N2
A/PR/8/34 H1N1 = system: A/PR/8/34 H1N1
A/Taiwan/1/86 H1N1 = system: A/Taiwan/1/86 H1N1
A/New Caledonia/20/99 = system: A/New Caledonia/20/99
A/Beijing/262/95 H1N1 = system: A/Beijing/262/95 H1N1
A/X31, A/Aichi/3/75 H3N2 = system: A/X31, A/Aichi/3/75 H3N2
A/Shangdong/9/93 H3N2 = system: A/Shangdong/9/93 H3N2
A/Hong Kong/8/68 H3N2 = system: A/Hong Kong/8/68 H3N2

Measured: Binding of different human influenza virus A strains to glycolipids

Globoside
−: A/2/Japan/305/57 H2N2 | A/Kiev/301/94 H3N2 | A/PR/8/34 H1N1 | A/Taiwan/1/86 H1N1 | A/New Caledonia/20/99 | A/Beijing/262/95 H1N1 | A/X31, A/Aichi/3/75 H3N2 | A/Shangdong/9/93 H3N2 | A/Hong Kong/8/68 H3N2
